In patent US7112555B1, “Use of glycuronic polysaccharides and oligosaccharides as phytosanitary products and/or fertiliser” (Centre National de la Recherche Scientifique, priority 1999, dated 2006):

What was measured:
1,3β-D-glucanase = 1,3β-D-glucanase response induced in the protoplasts of Rubus; type: cell-based, Rubus fruticosus L.; settings: for 1,3-β-D-glucanase activity (% control): elicitor 50 nM, 2.10^6 protoplasts
Procedure: (§1) Experimental conditions: (1) preparation of protoplasts from cell suspensions of Rubus fruticosus L.; (2) incubation, or not, of n samples of 2.10^6 protoplasts in the presence of “elicitors” (1,4-D-glucuronan polymers and 1,4β-D-galacturonan (400 μg/L) polymers, 1,4β-D-glucuronan oligomers of average DP 8, 1,4β-D-mannuronan oligomers of DP 4, and 1,4β-D-guluronan oligomers of DP 4 (50 nM)); (3) after 20 minutes, the protoplasts whether may be treated or not, are subjected to enzymatic extraction. 2 μg of proteins are used per enzymatic test, and per incubation period. The viability of the protoplasts is maintained at 95% for an experimental period of 6 hours; the Evans blue viability test used verifies the integrity of the plasmalemma.
Methodology: measurement of activity (1,3β-D-glucanase) is based on the calorimetric dosage (ferricyan test) of the substrate-reducing units (reduced hexamer from laminarin) released during hydrolysis. Based on the kinetics developed, curves are traced whose equations make it possible to calculate the speed of the enzymatic reaction. 2 kinetics, at least, are developed per sample, and per experimental “set”. In general, at least 8 kinematics from samples of 2 independent “sets” are developed.
Results: the enzymatic activation elicited in the protoplasts is expressed as a % of the activity in the controls.

[1] = test system: xyloglucan endotransglycolase; test: Xyloglucan endotransglycolase (XET) response induced in protoplasts of Rubus; type: cell-based; settings: 50 nM, in 20 minutes
Procedure: Experimental elicitation conditions. 2.10^6 protoplasts in 1 ml Tris-HCl buffer (pH 4.8) are incubated in the presence, or not, of an elicitor (50 nM) or of a hormone (50 nM): mannuronan oligomer of DP4 or glucuronan oligomer of DP8 or gibberellin GA3. After 20, 40, 60, 100 and 120 minutes of interaction, the protoplasts are recovered by centrifugation, then subjected to enzymatic extraction.
Methodology: measurement of XET activity is carried out in the wells of microtitration plates in 4 stages. Stage 1: immobilization of the acceptor, i.e. the neoglycoprotein XXLG≈BSA. Stage 2: introduction of the reaction medium (XET enzymatic extraction (equivalent to 1 μg of proteins) substrate marked DIG, i.e. XG≈DIG in the Tris-HC1 buffer, pH=7, 25 mM). Stage 3: immunomarking according to the anti-DIG marked peroxydase sequence, anti-peroxydase marked peroxydase. Stage 4: dosage of the peroxydase activity in a citrate-phosphate buffer ([…], pH 5.5).
The peroxydase activity is measured at 492 nm. At least 3 curves of peroxydase activity are traced per experimental condition, and the experiments are carried out using 3 protoplast suspensions. The XET activity is measured by the slope (ΔA 492) of the curve deduced by linear regression from 9 peroxydase kinetics curves.

1,4β-D-glucanase = 1,4β-D-glucanase response induced in protoplasts of Rubus; type: cell-based, Rubus fruticosus L.; settings: elicitor 50 nM, 20 minutes, 2.10^6 protoplasts
Procedure: as §1
Experimental elicitation conditions: identical to those reported above.
Methodology: measurement of activity (1,4β-D-glucanase) is based on the calorimetric dosage (ferricyan test) described above of the substrate-reducing units (reduced cellopentaose) released during hydrolysis.

## 1,4β-D-glucuronan polymer
1,3β-D-glucanase; nanomolar concentration, in 20 minutes
  amplification factor of 1,3-β-D-glucanase activity in plant protoplasts: 1.3

## oligo 1,4-β-D-mannuronan of DP 4
1,3β-D-glucanase; 20 minutes
  1,3-β-D-glucanase activity (% control): 122 % control
[1]
  amplification factor of XET activity versus non-elicited protoplasts: 2.12

## glucuronan oligomer of DP8
[1]
  amplification factor of XET activity versus non-elicited protoplasts: 1.62

## C=C1C[C@]23C[C@@]1(O)CC[C@H]2[C@@]12C=C[C@H](O)[C@](C)(C(=O)O1)[C@H]2[C@@H]3C(=O)O [GA3, gibberellin GA3, reference compound]
[1]
  amplification factor of XET activity versus non-elicited protoplasts: 1.12

## oligo 1,4-β-D-guluronan of DP 4 [e]
1,4β-D-glucanase
  1,4β-D-glucanase activity (% control): 101 % control
1,3β-D-glucanase; 50 nM, 20 minutes
  effectiveness of 1,3-β-D-glucanase induction among the other products tested: most effective
1,3β-D-glucanase; 20 minutes
  1,3-β-D-glucanase activity (% control): 146 % control
